Reference: ChEMBL document CHEMBL1201862, “PubChem BioAssay data set” (2004)
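1) Cells in 96-well plates. 2) Compound, 48 h, 5 concentrations. 3) Linear interpolation between surrounding doses. 4) Unreached endpoint = highest concentration. GI50 is the concentration that inhibits growth by half.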 The source made the active and inactive calls. Rule as the data show it: active = GI50 up to about 1.1 µM and inactive = higher.

Experiments:
Test in all cases: NCI-60 cell line screen, 48 h
[1] = tested on: SK-OV-3
[2] = tested on: KM12
[3] = tested on: HCT-15
[4] = tested on: A549
[5] = tested on: NCI-H522
[6] = tested on: M14
[7] = tested on: HT-29
[8] = tested on: NCI-H460
[9] = tested on: OVCAR-3
[10] = tested on: KM-20L2
[11] = tested on: TK-10
[12] = tested on: HL-60
[13] = tested on: HCT-116
[14] = tested on: CAKI-1
[15] = tested on: SNB-19
[16] = tested on: MDA-MB-435
[17] = tested on: NCI/ADR-RES
[18] = tested on: BT-549
[19] = tested on: Hs-578T
[20] = tested on: MDA-N

Row | SMILES | GI50 [1] | GI50 [2] | GI50 [3] [µM] | GI50 [4] | GI50 [5] | GI50 [6] | GI50 [7] | GI50 [8] | GI50 [9] | GI50 [10] | GI50 [11] | GI50 [12] | GI50 [13] | GI50 [14] | GI50 [15] | GI50 [16] | GI50 [17] | GI50 [18] | GI50 [19] | GI50 [20]
1 | O=C(CSc1nnc(Cc2ccccc2)o1)Nc1cccc([N+](=O)[O-])c1 | > 100 µM (inactive) | > 100 µM (inactive) | > 100 | > 100 µM (inactive) | > 100 µM (inactive) | > 100 µM (inactive) | > 100 µM (inactive) | > 100 µM (inactive) | > 100 µM (inactive) | > 100 µM (inactive) | > 100 µM (inactive) | > 100 µM (inactive) | > 100 µM (inactive) | – | – | – | – | – | – | –
2 | COc1cc(OC)c(C(=O)c2cccs2)cc1N | > 100 µM (inactive) | > 100 µM (inactive) | > 100 | > 100 µM (inactive) | – | > 100 µM (inactive) | > 100 µM (inactive) | > 100 µM (inactive) | > 100 µM (inactive) | > 100 µM (inactive) | > 100 µM (inactive) | – | – | > 100 µM (inactive) | > 100 µM (inactive) | – | – | – | – | –
3 | COC(=O)C1=C(C(=O)OC)SC2(S1)C1=C(CCCC1)SC(C(=O)OC)=C2C(=O)OC | 14.9 µM (inactive) | 5.74 µM (inactive) | 4.39 | 14.6 µM (inactive) | 1.72 µM (inactive) | 16.9 µM (inactive) | 2.84 µM (inactive) | 3.84 µM (inactive) | 6.89 µM (inactive) | – | 10.9 µM (inactive) | 2.91 µM (inactive) | 1.52 µM (inactive) | 4.06 µM (inactive) | 14.5 µM (inactive) | 2.81 µM (inactive) | 17.9 µM (inactive) | 11.7 µM (inactive) | 15.9 µM (inactive) | 3.9 µM (inactive)
4 | CCOc1ccc(NCC(=O)N2CC(=O)Nc3ccccc32)cc1 | > 100 µM (inactive) | > 100 µM (inactive) | > 100 | > 100 µM (inactive) | > 100 µM (inactive) | > 100 µM (inactive) | > 100 µM (inactive) | > 100 µM (inactive) | > 100 µM (inactive) | > 100 µM (inactive) | > 100 µM (inactive) | > 100 µM (inactive) | > 100 µM (inactive) | > 100 µM (inactive) | > 100 µM (inactive) | – | – | – | – | –
5 | COc1cc(NC(C)=O)c2[nH]c3c(C)cc(NC(C)=O)c(C)c3c2c1 | > 100 µM (inactive) | > 100 µM (inactive) | > 100 | > 100 µM (inactive) | > 100 µM (inactive) | > 100 µM (inactive) | > 100 µM (inactive) | > 100 µM (inactive) | > 100 µM (inactive) | > 100 µM (inactive) | > 100 µM (inactive) | > 100 µM (inactive) | > 100 µM (inactive) | > 100 µM (inactive) | > 100 µM (inactive) | – | – | – | – | –
6 | O=C1c2ccccc2C(=O)N1Cc1ccccc1-c1c2nc(c(-c3ccccc3CN3C(=O)c4ccccc4C3=O)c3ccc([nH]3)c(-c3ccccc3CN3C(=O)c4ccccc4C3=O)c3nc(c(-c4ccccc4CN4C(=O)c5ccccc5C4=O)c4ccc1[nH]4)C=C3)C=C2 | > 100 µM (inactive) | > 100 µM (inactive) | > 100 | > 100 µM (inactive) | > 100 µM (inactive) | 31.2 µM (inactive) | > 100 µM (inactive) | > 100 µM (inactive) | > 100 µM (inactive) | > 100 µM (inactive) | > 100 µM (inactive) | > 100 µM (inactive) | > 100 µM (inactive) | > 100 µM (inactive) | – | – | – | – | – | –
7 | C/C(CC(=O)Nc1ccc(Cl)cc1)=N\NC(=O)C[n+]1ccccc1 | > 100 µM (inactive) | > 100 µM (inactive) | – | > 100 µM (inactive) | 75 µM (inactive) | > 100 µM (inactive) | > 100 µM (inactive) | > 100 µM (inactive) | > 100 µM (inactive) | > 100 µM (inactive) | > 100 µM (inactive) | > 100 µM (inactive) | > 100 µM (inactive) | – | – | – | – | – | – | –
8 | Cc1cc(NS(=O)(=O)c2ccc(NC(=O)COC(=O)c3cccc4c(=O)c5ccccc5[nH]c34)cc2)no1 | > 100 µM (inactive) | > 100 µM (inactive) | > 100 | > 100 µM (inactive) | > 100 µM (inactive) | > 100 µM (inactive) | > 100 µM (inactive) | > 100 µM (inactive) | > 100 µM (inactive) | > 100 µM (inactive) | > 100 µM (inactive) | > 100 µM (inactive) | > 100 µM (inactive) | > 100 µM (inactive) | > 100 µM (inactive) | – | – | – | – | –
9 | COC(=O)C(CC(C)C)NC(=O)NC12CC3CC(CC(F)(C3)C1)C2 (stereo unspecified) | > 100 µM (inactive) | > 100 µM (inactive) | – | > 100 µM (inactive) | > 100 µM (inactive) | > 100 µM (inactive) | > 100 µM (inactive) | > 100 µM (inactive) | > 100 µM (inactive) | > 100 µM (inactive) | > 100 µM (inactive) | > 100 µM (inactive) | > 100 µM (inactive) | – | > 100 µM (inactive) | – | – | – | – | –
10 | CC(C)=CCc1c(O)cc(O)c2c1OC(c1ccc(O)cc1)C(O)C2=O (stereo unspecified) | 38.4 µM (inactive) | 26.5 µM (inactive) | 21.7 | 26.1 µM (inactive) | 18.9 µM (inactive) | 22.6 µM (inactive) | 20.9 µM (inactive) | 27.6 µM (inactive) | 19.2 µM (inactive) | 18.1 µM (inactive) | 24.9 µM (inactive) | – | 32.4 µM (inactive) | – | 37.2 µM (inactive) | – | – | – | – | –
11 | Cc1ccc(Sc2ccccc2[N+](=O)[O-])cc1 | 34.4 µM (inactive) | 29.4 µM (inactive) | 20 | 35 µM (inactive) | – | 29 µM (inactive) | 19.9 µM (inactive) | 31.1 µM (inactive) | 31 µM (inactive) | 33.3 µM (inactive) | 37.8 µM (inactive) | 21 µM (inactive) | 27.5 µM (inactive) | – | – | – | – | – | – | –
12 | CC(=O)OC1CC2OC(Cc3ccccc32)O1 (stereo unspecified) | > 100 µM (inactive) | > 100 µM (inactive) | – | > 100 µM (inactive) | > 100 µM (inactive) | 79.1 µM (inactive) | > 100 µM (inactive) | > 100 µM (inactive) | > 100 µM (inactive) | > 100 µM (inactive) | > 100 µM (inactive) | > 100 µM (inactive) | > 100 µM (inactive) | – | > 100 µM (inactive) | – | – | – | – | –
13 | COC(=O)C(Cc1nc2ccc(Cl)cc2nc1O)/C(=N/O)C(=O)Nc1cccc(Cl)c1C (stereo unspecified) | > 100 µM (inactive) | > 100 µM (inactive) | > 100 | > 100 µM (inactive) | > 100 µM (inactive) | > 100 µM (inactive) | > 100 µM (inactive) | > 100 µM (inactive) | > 100 µM (inactive) | > 100 µM (inactive) | > 100 µM (inactive) | > 100 µM (inactive) | > 100 µM (inactive) | > 100 µM (inactive) | > 100 µM (inactive) | – | – | – | – | –
14 | O=C1NC2OC(C(O)CO)C(O)C2O1 (stereo unspecified) | > 100 µM (inactive) | > 100 µM (inactive) | > 100 | > 100 µM (inactive) | > 100 µM (inactive) | > 100 µM (inactive) | > 100 µM (inactive) | > 100 µM (inactive) | > 100 µM (inactive) | > 100 µM (inactive) | > 100 µM (inactive) | > 100 µM (inactive) | > 100 µM (inactive) | > 100 µM (inactive) | > 100 µM (inactive) | – | – | – | – | –
15 | CC(C)c1cccc(C(C)C)c1NC(=S)Nc1ccccc1 | > 100 µM (inactive) | > 100 µM (inactive) | > 100 | > 100 µM (inactive) | – | > 100 µM (inactive) | > 100 µM (inactive) | > 100 µM (inactive) | > 100 µM (inactive) | > 100 µM (inactive) | > 100 µM (inactive) | 6.81 µM (inactive) | > 100 µM (inactive) | – | > 100 µM (inactive) | – | – | – | – | –
16 | Cc1ccccc1NC(=O)C(=O)CC(=O)c1ccc([N+](=O)[O-])cc1 | > 100 µM (inactive) | > 100 µM (inactive) | > 100 | > 100 µM (inactive) | – | > 100 µM (inactive) | > 100 µM (inactive) | > 100 µM (inactive) | > 100 µM (inactive) | > 100 µM (inactive) | > 100 µM (inactive) | – | > 100 µM (inactive) | > 100 µM (inactive) | > 100 µM (inactive) | – | – | – | – | –
17 | CCOC(=O)CC1=CSC2=NCCN12 | > 100 µM (inactive) | > 100 µM (inactive) | > 100 | > 100 µM (inactive) | > 100 µM (inactive) | > 100 µM (inactive) | > 100 µM (inactive) | > 100 µM (inactive) | > 100 µM (inactive) | > 100 µM (inactive) | > 100 µM (inactive) | > 100 µM (inactive) | > 100 µM (inactive) | > 100 µM (inactive) | > 100 µM (inactive) | – | – | – | – | –
18 | COc1cc2c(c(OC)c1OC)-c1ccc(SC)c(=O)cc1[C@@H](NCc1ccc(C#N)cc1)CC2 | 0.0031 µM (active) | 0.00469 µM (active) | 0.00472 | 0.00411 µM (active) | 0.00278 µM (active) | 0.00326 µM (active) | 0.00239 µM (active) | 0.00379 µM (active) | 0.00321 µM (active) | 0.00194 µM (active) | 0.00811 µM (active) | 0.00301 µM (active) | 0.00387 µM (active) | 0.00701 µM (active) | 0.0488 µM (active) | – | – | – | – | –
19 | C/C1=C\CC/C(C)=C/C=C(/C(C)C)CC/C(C(=O)O)=C/CC1 [CROTOCEMBRANEIC ACID] | 35.5 µM (inactive) | 42.9 µM (inactive) | 37.8 | 34.3 µM (inactive) | 38.1 µM (inactive) | 45 µM (inactive) | 46.7 µM (inactive) | 34.8 µM (inactive) | 22.9 µM (inactive) | – | 56.8 µM (inactive) | 33 µM (inactive) | 40.3 µM (inactive) | 49.9 µM (inactive) | 53.3 µM (inactive) | 44.4 µM (inactive) | 44.8 µM (inactive) | 61.5 µM (inactive) | 72.1 µM (inactive) | 59 µM (inactive)
